Results published in BindingDB's records for PubMed 35063731 (Chinese Academy of Sciences, 2022).

Columns and labels:
Maltase-glucoamylase [1] = biological target: T1, Maltase-glucoamylase (Homo sapiens, UniProt O43451); assay: Inhibition of alpha-glucosidase (unknown origin)
Maltase-glucoamylase [2] = biological target: T1, Maltase-glucoamylase; assay: Inhibition of alpha-Glucosidase (unknown origin) using pNPG as substrate incubated for 20 mins by micro plate reader analysis
[3] = Inhibition of influenza A virus Neuraminidase using 2-(4-methylumbelliferyl)-a-D-acetylneuraminic acid as substrate incubated for 30 mins by fluorescence based analysis

T1 sequence (O43451 whole entry): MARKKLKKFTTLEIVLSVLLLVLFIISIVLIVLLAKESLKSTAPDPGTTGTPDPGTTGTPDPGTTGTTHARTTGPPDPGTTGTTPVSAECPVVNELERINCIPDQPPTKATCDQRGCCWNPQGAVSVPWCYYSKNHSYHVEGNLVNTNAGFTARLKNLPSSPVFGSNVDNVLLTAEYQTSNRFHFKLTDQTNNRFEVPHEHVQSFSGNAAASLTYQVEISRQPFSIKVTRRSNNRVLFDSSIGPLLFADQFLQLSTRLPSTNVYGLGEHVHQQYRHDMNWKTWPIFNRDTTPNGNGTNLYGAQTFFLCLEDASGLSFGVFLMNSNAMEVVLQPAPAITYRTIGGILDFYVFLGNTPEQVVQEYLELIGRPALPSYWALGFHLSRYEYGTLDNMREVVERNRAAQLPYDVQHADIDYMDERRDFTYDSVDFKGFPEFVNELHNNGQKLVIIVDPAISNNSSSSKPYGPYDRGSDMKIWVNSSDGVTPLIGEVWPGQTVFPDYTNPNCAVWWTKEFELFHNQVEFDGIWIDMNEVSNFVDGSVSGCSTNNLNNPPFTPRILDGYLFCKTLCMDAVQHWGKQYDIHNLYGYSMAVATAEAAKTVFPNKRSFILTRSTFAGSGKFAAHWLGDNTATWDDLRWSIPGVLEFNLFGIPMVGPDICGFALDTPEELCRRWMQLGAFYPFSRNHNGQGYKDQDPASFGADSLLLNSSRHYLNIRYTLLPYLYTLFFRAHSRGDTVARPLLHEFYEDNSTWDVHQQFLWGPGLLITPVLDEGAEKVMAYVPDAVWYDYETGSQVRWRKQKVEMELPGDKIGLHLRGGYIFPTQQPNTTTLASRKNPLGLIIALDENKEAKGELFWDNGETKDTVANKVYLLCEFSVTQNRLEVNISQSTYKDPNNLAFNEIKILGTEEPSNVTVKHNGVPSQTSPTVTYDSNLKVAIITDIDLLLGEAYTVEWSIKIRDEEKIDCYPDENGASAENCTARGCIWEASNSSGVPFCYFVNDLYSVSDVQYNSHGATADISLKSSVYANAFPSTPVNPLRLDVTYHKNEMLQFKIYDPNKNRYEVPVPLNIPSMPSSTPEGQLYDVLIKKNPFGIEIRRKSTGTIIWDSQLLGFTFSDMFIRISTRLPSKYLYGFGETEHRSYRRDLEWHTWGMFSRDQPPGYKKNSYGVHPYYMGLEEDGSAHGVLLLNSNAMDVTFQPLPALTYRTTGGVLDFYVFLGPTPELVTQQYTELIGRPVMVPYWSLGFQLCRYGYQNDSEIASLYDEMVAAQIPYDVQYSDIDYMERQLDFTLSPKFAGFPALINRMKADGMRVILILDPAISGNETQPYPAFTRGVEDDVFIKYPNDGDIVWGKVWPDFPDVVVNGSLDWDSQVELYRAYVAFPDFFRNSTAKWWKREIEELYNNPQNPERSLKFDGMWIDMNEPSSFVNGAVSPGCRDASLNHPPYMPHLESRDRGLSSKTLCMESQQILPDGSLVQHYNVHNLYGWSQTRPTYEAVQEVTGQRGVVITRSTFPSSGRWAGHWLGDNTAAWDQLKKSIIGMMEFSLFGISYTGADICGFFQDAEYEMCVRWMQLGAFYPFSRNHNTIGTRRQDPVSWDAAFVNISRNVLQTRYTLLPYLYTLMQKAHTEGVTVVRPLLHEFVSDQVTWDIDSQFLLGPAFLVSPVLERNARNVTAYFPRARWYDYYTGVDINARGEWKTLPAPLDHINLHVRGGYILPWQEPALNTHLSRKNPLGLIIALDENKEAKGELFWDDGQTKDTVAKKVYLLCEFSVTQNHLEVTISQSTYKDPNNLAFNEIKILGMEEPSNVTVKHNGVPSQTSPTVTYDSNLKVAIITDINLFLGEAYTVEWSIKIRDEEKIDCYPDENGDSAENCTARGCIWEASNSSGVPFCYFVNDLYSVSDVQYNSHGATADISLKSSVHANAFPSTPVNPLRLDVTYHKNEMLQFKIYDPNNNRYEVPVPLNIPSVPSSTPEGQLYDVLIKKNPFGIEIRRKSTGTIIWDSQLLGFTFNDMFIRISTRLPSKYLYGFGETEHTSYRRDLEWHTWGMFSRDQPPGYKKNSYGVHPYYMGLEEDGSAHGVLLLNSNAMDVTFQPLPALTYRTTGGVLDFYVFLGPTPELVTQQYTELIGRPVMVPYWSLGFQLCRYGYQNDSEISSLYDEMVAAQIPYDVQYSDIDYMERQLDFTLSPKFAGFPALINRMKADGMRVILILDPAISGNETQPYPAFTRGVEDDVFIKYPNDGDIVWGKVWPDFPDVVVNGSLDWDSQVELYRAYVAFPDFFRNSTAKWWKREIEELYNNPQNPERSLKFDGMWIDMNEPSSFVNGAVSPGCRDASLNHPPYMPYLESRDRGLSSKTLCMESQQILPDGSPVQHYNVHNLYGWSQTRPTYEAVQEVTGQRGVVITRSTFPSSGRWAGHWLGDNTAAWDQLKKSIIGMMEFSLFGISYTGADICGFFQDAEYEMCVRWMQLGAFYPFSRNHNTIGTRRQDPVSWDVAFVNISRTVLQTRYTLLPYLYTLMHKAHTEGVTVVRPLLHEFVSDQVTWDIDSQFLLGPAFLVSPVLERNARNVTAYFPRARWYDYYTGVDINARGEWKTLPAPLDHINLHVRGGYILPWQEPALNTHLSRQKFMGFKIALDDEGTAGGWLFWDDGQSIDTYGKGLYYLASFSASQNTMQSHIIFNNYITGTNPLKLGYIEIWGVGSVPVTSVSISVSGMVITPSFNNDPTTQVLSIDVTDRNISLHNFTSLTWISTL

CC(C)=CCc1cc(C[C@@]2(C(=O)O)OC(=O)C(OC(C)(C)[C@@H](O)Cc3cc(C[C@@]4(C(=O)O)OC(=O)C(O)=C4c4ccc(O)cc4)ccc3O)=C2c2ccc(O)cc2)ccc1O
IC50 (Maltase-glucoamylase [1]): 10.5 µM

COc1cc2c(c(O)c1CO)C(=O)OC[C@@H]2O
IC50 (Maltase-glucoamylase [2]): 1.41 mM

COC(=O)[C@@]1(C(=O)C(C)=O)C(C)=C(C)C=C2[C@]3(C=O)CC[C@H](OC(C)=O)C(C)(C)[C@H]3CC[C@@]21C
IC50 [3]: 8.1 nM
